Assay results from publication PMC7616191 (Molecular pharmacology, 2018).

Target: T1, human muscarinic acetylcholine M1 receptor (hM1 mAChR) (Homo sapiens, UniProt P11229)
T1 sequence (P11229 1-460): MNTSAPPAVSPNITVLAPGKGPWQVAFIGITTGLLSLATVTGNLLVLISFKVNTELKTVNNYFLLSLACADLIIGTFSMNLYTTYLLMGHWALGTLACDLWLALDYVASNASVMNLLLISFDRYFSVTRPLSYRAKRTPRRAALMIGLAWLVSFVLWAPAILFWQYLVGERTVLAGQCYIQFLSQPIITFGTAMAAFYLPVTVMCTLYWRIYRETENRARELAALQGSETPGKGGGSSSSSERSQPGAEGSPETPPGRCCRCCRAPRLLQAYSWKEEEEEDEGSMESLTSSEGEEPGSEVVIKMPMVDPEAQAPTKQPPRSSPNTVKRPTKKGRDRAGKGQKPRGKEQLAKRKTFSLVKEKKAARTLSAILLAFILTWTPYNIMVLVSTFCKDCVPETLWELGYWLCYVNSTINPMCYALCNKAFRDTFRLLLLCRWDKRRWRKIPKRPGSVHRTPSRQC
Experiment: IP1 accumulation
Format: cell-based
Details: vehicle-pretreated control; orthosteric agonist; […]°C, […] h, pH […]

C[N+](C)(C)CC#CCN1CCCC1=O [Oxo-M]
pEC50^a: 6.08 ± 0.13
